# From article PMC11571207, “Stereorandomized Oncocins with Preserved Ribosome Binding and Antibacterial Activity” (Journal of Medicinal Chemistry, 2024)
# Non-standard residues stand in square brackets, D forms with d. Residues, ends and D or L forms follow the SMILES beside them. No end group written: not given here.
# Experiments:
# [1] = tested on: A. baumannii ATCC19606; test: microbe, parasite or virus in culture; settings: for MIC A. baumannii, 12.5% MHB / MIC A. baumannii, Full MHB: A. baumannii ATCC19606, 16–20 h at 37 °C; for MIC A. baumannii, 12.5% MHB: 12.5% Müller–Hinton medium; for MIC A. baumannii, Full MHB: full Müller–Hinton medium; for MIC A. baumannii ATCC19606: supplement CSV
# Excerpt: (§1) We tested antibacterial effects against the Gram-negative bacteria Escherichia coli, Klebsiella pneumoniae, Pseudomonas aeruginosa, and Acinetobacter baumannii and the Gram-positive methicillin-resistant Staphylococcus aureus (MRSA).
# (§2) Bacterial growth assay (Figure S1), transmission electron microscopy (Figure S6), serum stability assay (Figure S7), circular dichroism spectral recording (Figures S8 and S9), antimicrobial and hemolysis activity assays (MIC and MHC), and vesicle leakage assay were carried out as described in earlier publications.[43],[44]
# (§3) Minimum inhibitory concentration assay
# (§4) Antimicrobial activity was assayed against P. aeruginosa PAO1, K. pneumoniae NCTC418, E. coli W3110, A. baumannii ATCC 19606, methicillin-resistant S. aureus COL (MRSA), and for selected peptides on P. aeruginosa PA14 and the polymyxin-B-resistant derivative PA14 2P4, as well as the clinical isolates ZEM-1A and ZEM9A, K. pneumoniae OXA-48, S. aureus Newman, Enterobacter cloacae and Burkholderia cenocepacia. The minimal inhibitory concentration (MIC) was determined by using broth microdilution method. A colo ny of bacteria was picked and grown in Luria-Bertani (LB) medium overnight at 37°C. For E. coli BW25113 sbmA::kan the medium was supplemented with 25 mg/L of kanamycin. The next day, the culture was then regrown in LB medium to log phase (OD600 = 0.6 to 0.8), which lasted approximately 4 h, and diluted to an OD600 of 0.022 in the desired medium. Stock solutions of 1 mg/mL of the samples were prepared in sterilized milliQ water and diluted to the beginning concentration of 64 μg/mL in 300 μL Mueller Hinton (MH)-medium. The diluted samples were added to first well of 96-well microtiter plate (TPP, untreated, Faust Laborbedarf, AG, Schaffhausen) and diluted serially by ½. Finally, 4 μL of the bacterial suspension was inoculated into the sample solutions (150 μL/well) with a final inoculation of about 5∙10^5 CFU/mL. The plates were then incubated at 37°C for 15-18h. For each assay, sterility (broth only) and growth control (broth with bacterial inoculum, without antibiotics) were checked with two columns in the plate. The next day, 15 μL of 3-(4,5-dimethylthiazol-2-yl)-2,5-diphenyltetrazolium bromide (MTT) was added to each well of the plate, such a way that MIC was defined as the lowest concentration of the peptide that inhibited visible growth of the tested
# [2] = tested on: E. coli W3110; test: microbe, parasite or virus in culture; settings: for MIC E. coli, 12.5% MHB / MIC E. coli, Full MHB: E. coli W3110, 16–20 h at 37 °C, broth microdilution; for MIC E. coli, 12.5% MHB: 12.5% Müller–Hinton medium; for MIC E. coli, Full MHB: full Müller–Hinton medium; for MIC E. coli W3110: supplement CSV
# Excerpt: as §1, §2, §3, §4
# [3] = tested on: K. pneumoniae NCTC 418; test: microbe, parasite or virus in culture; settings: for MIC K. pneumoniae, 12.5% MHB / MIC K. pneumoniae, Full MHB: K. pneumoniae NCTC 418, 16–20 h at 37 °C; for MIC K. pneumoniae, 12.5% MHB: 12.5% Müller–Hinton medium; for MIC K. pneumoniae, Full MHB: full Müller–Hinton medium; for MIC K. pneumoniae NCTC418: supplement CSV
# Excerpt: as §1, §2, §3, §4
# [4] = tested on: P. aeruginosa PAO1; test: microbe, parasite or virus in culture; settings: for MIC P. aeruginosa, 12.5% MHB / MIC P. aeruginosa, Full MHB: P. aeruginosa PAO1, 16–20 h at 37 °C; for MIC P. aeruginosa, 12.5% MHB: 12.5% Müller–Hinton medium; for MIC P. aeruginosa, Full MHB: full Müller–Hinton medium; for MIC P. aeruginosa PAO1: supplement CSV
# Excerpt: as §1, §2, §3, §4
# [5] = tested on: S. aureus COL (MRSA); test: microbe, parasite or virus in culture; settings: for MIC S. aureus, 12.5% MHB / MIC S. aureus, Full MHB: S. aureus COL (MRSA), 16–20 h at 37 °C; for MIC S. aureus, 12.5% MHB: 12.5% Müller–Hinton medium; for MIC S. aureus, Full MHB: full Müller–Hinton medium; for MIC S. aureus COL (MRSA): supplement CSV
# Excerpt: as §1, §2, §3, §4
# [6] = tested on: human red blood cells; test: Hemolysis assay, minimum hemolytic concentration; settings: for Haemolysis on hRBC, MHC: 2.5% human red blood cells (final) in 10 mM phosphate, 150 mM NaCl, pH 7.4, 25 °C, 4 h, visual inspection; for MHC human red blood cells: supplement CSV
Molecule,"MIC A. baumannii, 12.5% MHB [1] [µg/mL]","MIC A. baumannii, Full MHB [1] [µg/mL]",MIC A. baumannii ATCC19606 ([1]; 12.5% MH pH 7.4) [µg/mL],MIC A. baumannii ATCC19606 ([1]; full MH pH 7.4) [µg/mL],"MIC E. coli, 12.5% MHB [2] [µg/mL]","MIC E. coli, Full MHB [2] [µg/mL]",MIC E. coli W3110 ([2]; 12.5% MH pH 7.4) [µg/mL],MIC E. coli W3110 ([2]; full MH pH 7.4) [µg/mL],"MIC K. pneumoniae, 12.5% MHB [3] [µg/mL]","MIC K. pneumoniae, Full MHB [3] [µg/mL]",MIC K. pneumoniae NCTC418 ([3]; 12.5% MH pH 7.4) [µg/mL],MIC K. pneumoniae NCTC418 ([3]; full MH pH 7.4) [µg/mL],"MIC P. aeruginosa, 12.5% MHB [4] [µg/mL]","MIC P. aeruginosa, Full MHB [4] [µg/mL]",MIC P. aeruginosa PAO1 ([4]; 12.5% MH pH 7.4) [µg/mL],MIC P. aeruginosa PAO1 ([4]; full MH pH 7.4) [µg/mL],"MIC S. aureus, 12.5% MHB [5]","MIC S. aureus, Full MHB [5]",MIC S. aureus COL (MRSA) ([5]; 12.5% MH pH 7.4) [µg/mL],MIC S. aureus COL (MRSA) ([5]; full MH pH 7.4) [µg/mL],also measured
CC[C@H](C)[C@H](NC(=O)[C@H](CCCNC(=N)N)NC(=O)[C@H](CCCNC(=N)N)NC(=O)[C@@H]1CCCN1C(=O)[C@@H]1CCCN1C(=O)[C@H](CCCNC(=N)N)NC(=O)[C@@H]1CCCN1C(=O)[C@@H](CCCNC(=N)N)NC(=O)[C@@H]1CCCN1C(=O)[C@H](CC(C)C)NC(=O)[C@H](Cc1ccc(O)cc1)NC(=O)[C@@H]1CCCN1C(=O)[C@@H]1CCCN1C(=O)[C@H](CCCCN)NC(=O)[C@H](CC(=O)O)NC(=O)[C@@H](N)C(C)C)C(=O)N[C@@H](Cc1ccc(O)cc1)C(=O)N[C@@H](CC(N)=O)C(=O)N[C@@H](CCCNC(=N)N)C(N)=O [DR9-Onc] (H-VDKPPYLP[dR]PRPPRRIYNR-NH2),8,> 64,8,>64,4,16,4,16,4,16,4,16,32,> 64,32,>64,>64 / >64 μg/mL,>64 / >64 μg/mL,>64,>64,"Haemolysis on hRBC, MHC [6]: >1000 µg/mL; MHC human red blood cells [6]: >1000 µg/mL"
CC[C@H](C)[C@H](NC(=O)[C@H](CCCNC(=N)N)NC(=O)[C@H](CCCNC(=N)N)NC(=O)[C@@H]1CCCN1C(=O)[C@@H]1CCCN1C(=O)[C@@H](CCCNC(=N)N)NC(=O)[C@@H]1CCCN1C(=O)[C@H](CCCNC(=N)N)NC(=O)[C@@H]1CCCN1C(=O)[C@H](CC(C)C)NC(=O)[C@H](Cc1ccc(O)cc1)NC(=O)[C@@H]1CCCN1C(=O)[C@@H]1CCCN1C(=O)[C@H](CCCCN)NC(=O)[C@H](CC(=O)O)NC(=O)[C@@H](N)C(C)C)C(=O)N[C@@H](Cc1ccc(O)cc1)C(=O)N[C@@H](CC(N)=O)C(=O)N[C@@H](CCCNC(=N)N)C(N)=O [DR11-Onc] (H-VDKPPYLPRP[dR]PPRRIYNR-NH2),16,32,16,32,2,16,2,16,2,16,2,16,16,> 64,16,>64,>64 / >64 μg/mL,>64 / >64 μg/mL,>64,>64,"Haemolysis on hRBC, MHC [6]: >1000 µg/mL; MHC human red blood cells [6]: >1000 µg/mL"
CC[C@H](C)[C@H](NC(=O)[C@H](CCCNC(=N)N)NC(=O)[C@H](CCCNC(=N)N)NC(=O)[C@@H]1CCCN1C(=O)[C@@H]1CCCN1C(=O)[C@H](CCCNC(=N)N)NC(=O)[C@@H]1CCCN1C(=O)[C@H](CCCNC(=N)N)NC(=O)[C@@H]1CCCN1C(=O)[C@H](CC(C)C)NC(=O)[C@@H](Cc1ccc(O)cc1)NC(=O)[C@@H]1CCCN1C(=O)[C@@H]1CCCN1C(=O)[C@H](CCCCN)NC(=O)[C@H](CC(=O)O)NC(=O)[C@@H](N)C(C)C)C(=O)N[C@@H](Cc1ccc(O)cc1)C(=O)N[C@@H](CC(N)=O)C(=O)N[C@@H](CCCNC(=N)N)C(N)=O [DY6-Onc] (H-VDKPP[dY]LPRPRPPRRIYNR-NH2),16,> 64,16,>64,4,16,4,16,4,8,4,8,16,> 64,16,>64,>64 / 64 μg/mL,>64 / 64 μg/mL,64,>64,"Haemolysis on hRBC, MHC [6]: >1000 µg/mL; MHC human red blood cells [6]: >1000 µg/mL"
VDKPPYLPRPRPPRRIYNR [sr3N5Cterm-Onc] (VDKPPYLPRPRPPRRIYNR-NH2; also: residues 1-3 and 15-19 stereorandomized (1:1 L/D mixture)),4,32,4,32,1,8,1,8,1,16,1,16,8,> 64,8,>64,>64 / 64 μg/mL,>64 / 64 μg/mL,64,>64,"Haemolysis on hRBC, MHC [6]: >1000 µg/mL; MHC human red blood cells [6]: >1000 µg/mL"
